Assay results reported in patent publication US7968535B2, “Use of azapaullones for preventing and treating pancreatic autoimmune disorders” (Develogen Atkiengesellschaft, priority 2005, dated 2011).

Key:
INS-1E cells [1] = assay: Glucolipotoxicity induced apoptosis of INS-1E cells (overall assessment); type: cell-based, rat; conditions: palmitate and glucose, 24 hours
Procedure: (§1) The effects of the substance on cell viability, cell growth and specific apoptotic events such as caspases activity and DNA-fragmentation was monitored. INS-1E cell apoptosis was induced by treatment of cell cultures with toxic concentrations of glucose and palmitate for 24 hours. The substance of interest was added to the medium 1 hour prior to the addition of the toxic agents.
The effects of the test compounds on beta cell function were assessed using biological assays monitoring cellular metabolic activity as well as specific apoptotic events in Ins-1E cells.
(§2) 10,000 Ins-1E cells were seeded per 96-well (black 96-well tissue culture plates, Falcon #353948) in 100 μl culture medium (RPMI 1640 containing 11 mM glucose, 5% FCS, 10 mM HEPES, 50 μM 2-mercaptoethanol, 1 mM MEM sodium pyruvate, 100 U/ml penicillin, 100 μg/ml streptomycin) and cultivated at 37° C., 5% CO2 in humidified atmosphere for 3 days. Media was changed to 100 μl starvation medium (culture medium with only 5 mM glucose, 1% FCS) and the cells were re-incubated for 1 day. Then media was exchanged to starvation medium containing test substances.
(§3) Apoptosis of Ins-1E cells was induced by addition of a combination of BSA coupled palmitate and glucose (pal/gluc) or a combination of cytokines (cyt) 1 hour after starting the treatment with test substances: pal/gluc: 0.3 mM palmitate:BSA (palmitic acid sodium salt:fatty acid free BSA 6:1) and 25 mM glucose. 10×cyt: 0.04 ng/ml IL-1β and 1 ng/ml IFNγ. The cells were further incubated with test substances and apoptotic inducer for 24 hours.

INS-1E cells [2] = assay: Caspase activity assay in glucose/palmitate stressed cells; type: cell-based, rat; conditions: 2.5 μM
Procedure: as §1
Caspase activation is a characteristic of early apoptotic cells. The experiment was carried out as described above with the exception that the caspases activity assay was applied instead of the DNA-fragmentation assay (see Example 3 for details).
as §2, §3
Caspase activity is a characteristic of early apoptotic cells. Their activity was quantified by an enzymatic assay (homogeneous caspases assay, Roche, cat. No. 03 005 372 001). Caspase activity was measured 3 hours after addition of caspases substrate according to the manufacturers guidelines.

human GSK3 = assay: IC50 Profiler Express kinase assay; type: biochemical; conditions: 10-point curves in duplicate
Procedure: (§4) Experiments were carried out by Upstate Ltd. according to the protocols described in KinaseProfiler™ Assay Protocols, IC50 Profiler Express™ (10-point curves in duplicate) Fall 2004 by Ustate Cell Signaling solutions.

[3] = target: T1, cyclin dependent kinase 1 (Homo sapiens, UniProt P06493); assay: IC50 Profiler Express kinase assay; type: biochemical
T1 construct: purchased Upstate Ltd. (IC50 Profiler Express service)
T1 sequence (P06493 whole entry, species assumed): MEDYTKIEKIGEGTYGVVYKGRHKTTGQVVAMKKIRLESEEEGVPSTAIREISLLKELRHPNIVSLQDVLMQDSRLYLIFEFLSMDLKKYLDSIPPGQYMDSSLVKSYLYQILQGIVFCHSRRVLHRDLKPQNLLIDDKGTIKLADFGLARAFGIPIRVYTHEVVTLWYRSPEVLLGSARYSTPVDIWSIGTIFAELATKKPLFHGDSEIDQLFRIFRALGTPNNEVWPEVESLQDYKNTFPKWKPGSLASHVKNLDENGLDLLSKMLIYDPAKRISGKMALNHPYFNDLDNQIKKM
T1 sequence (P14635 whole entry partner, species assumed): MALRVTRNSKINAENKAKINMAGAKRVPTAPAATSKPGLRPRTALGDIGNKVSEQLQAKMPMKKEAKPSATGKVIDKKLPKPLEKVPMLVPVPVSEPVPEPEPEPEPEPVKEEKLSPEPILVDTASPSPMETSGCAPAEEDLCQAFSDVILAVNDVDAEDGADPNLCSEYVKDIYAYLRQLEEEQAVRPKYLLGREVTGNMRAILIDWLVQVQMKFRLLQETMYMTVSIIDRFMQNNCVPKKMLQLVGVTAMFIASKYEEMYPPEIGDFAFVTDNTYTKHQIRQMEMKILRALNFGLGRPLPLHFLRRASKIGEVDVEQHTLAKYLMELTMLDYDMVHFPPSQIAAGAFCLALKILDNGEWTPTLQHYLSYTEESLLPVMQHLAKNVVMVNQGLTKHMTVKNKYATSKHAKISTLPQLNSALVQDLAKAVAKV
Procedure: as §4

[4] = test system: panel of 28 protein kinases; assay: KinaseProfiler biochemical kinase activity assays; conditions: tested in parallel with 1-Azakenpaullone
Procedure: Experiments were carried out by Upstate Ltd. according to the protocols described in KinaseProfiler™ Assay Protocols Fall 2004 by Ustate Cell Signaling solutions.
Compounds 10c and e are structurally very similar to 1-Azakenpaullone and differ only by one substituent at position 9 of the D ring from their template 1-Azakenpaullone. […] These kinases were selected among about 250 different kinases based on their structural or functional similarity to GSK3, e.g. all available members of the CDK family were included in the survey because CDKs are most similar to GSK3 and several kinase inhibitors are known that inhibit members of both families. The direct comparison of different compounds in such an experiment provides information on the relative selectivity of the respective compounds.

Pax4 gene = assay: Pax4 transcription by quantitative real time RT-PCR; type: cell-based, rat
Procedure: FIG. 11 illustrates a representative experiment in which the relative Pax4 levels were quantified using quantitative real time RT-PCR. […] Data are presented as relative levels to the basal Pax4 expression level in INS-1E cells only treated with the vehicle (Co.). Activin-A (1 nM) treated INS-1E cells serve as a positive control.
The response of the Pax4 gene to test compounds was investigated in the rat insulinoma cell line INS-1E. INS-1E cells are known to express Pax4 and to upregulate Pax4 levels in response to the treatment with activin-A and betacellulin. In the search for novel beta cell mitogens and/or beta cell protective agents the inventors treated INS-1E cells with test compound 10c. Compound 10c induces the relative Pax4 expression about 5-fold compared to the control and compared to 1 nM activin A (FIG. 11).
INS-1E cells were cultured as described (Merglen, (2004) Endocrinology; 145: 667-678). Cells were seeded at a density of 2×10^4 cells per cm^2 6 to 8 days before the treatment with chemicals. During the growth period the medium was changed once. […]
Total RNA from 8×10^4 cells growing on 4 cm^2 surface area of a tissue culture dish was extracted using Qiagen RNAeasy kit according to the instructions of the manufacturer (Qiagen) and 2 μg was converted into cDNA. […] Quantitative real-time PCR was performed using Applied Biosystems SDS 7000 detection system. […]

inhibition of human GSK3 (human GSK3): potent inhibitor
kinase selectivity / activity profile [4]: selective kinase inhibitors
SMILES: N#Cc1ccc2[nH]c3c(c2c1)CC(=O)Nc1cccnc1-3 [Compound 10c, 6-Oxo-5,6,7,12-tetrahydropyrido[3′,2′:2,3]azepino[4,5-b]indole-9-carbonitrile]
effect on glucolipotoxicity induced apoptosis (INS-1E cells [1]): strongly antagonizes glucolipotoxicity induced apoptosis
reduction of caspase activity (INS-1E cells [2]): 77%
affinity to CDK1 relative to 1-Azakenpaullone [3]: higher affinity to CDK1 than the reference compound 1-Azakenpaullone
inhibition of the enzymatic activity of cyclin dependent kinase 1 ([3]; compared with GSK3): comparatively higher concentration of this inhibitor are required
Pax4 gene transcription (Pax4 gene; 2 μM): transiently induce Pax4 gene transcription
relative Pax4 expression compared to the control (Pax4 gene; INS-1E cells, vehicle control): about 5 fold
